According to article PMC5681660, “Reduced hepatitis B and D viral entry using clinically applied drugs as novel inhibitors of the bile acid transporter NTCP” (Scientific Reports, 2017):
Structures can show the parent of a compound that is named as a salt. Where two headings read alike, the source gives them in different places.

How the values were obtained:
human NTCP [1] = molecular target: T1, human NTCP (Homo sapiens, UniProt Q14973); experiment: Screening taurocholate uptake assay (96-well, [14C]taurocholate, 10 µM drug)
T1 sequence (Q14973 1-349): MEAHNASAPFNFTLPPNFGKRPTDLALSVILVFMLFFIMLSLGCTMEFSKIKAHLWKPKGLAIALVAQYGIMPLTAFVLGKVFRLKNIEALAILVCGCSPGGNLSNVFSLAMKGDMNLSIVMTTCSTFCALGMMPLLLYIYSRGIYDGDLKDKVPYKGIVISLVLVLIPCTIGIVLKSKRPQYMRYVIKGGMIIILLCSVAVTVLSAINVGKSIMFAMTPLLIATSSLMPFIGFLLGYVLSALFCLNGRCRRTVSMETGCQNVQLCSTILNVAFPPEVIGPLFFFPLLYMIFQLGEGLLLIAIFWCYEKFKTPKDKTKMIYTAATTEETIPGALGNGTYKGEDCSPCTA

human NTCP [2] = molecular target: T1, human NTCP; experiment: Screening fluorescent competitive Myrcludex B-FITC binding assay (96-well, 10 µM drug)
[3] = Prestwick library screen, taurocholate uptake, 10 µM drug
[4] = ranking score beside the functional and binding assay B-scores of the screen
[5] = Prestwick library screen, Myrcludex B-FITC binding, 10 µM drug
[6] = combined ranking from functional and binding screening assays
[7] = screen, 10 µM drug, taurocholate uptake
[8] = screen, 10 µM drug, Myrcludex B-FITC binding
[9] = Prestwick library screen, 10 µM drug, B-score of taurocholate uptake
[10] = combined ranking from functional and binding assay B-scores
[11] = Prestwick library screen, 10 µM drug, B-score of Myrcludex B-FITC binding

Structure (SMILES) | B-score functional assay (human NTCP [1]; [3]) | Ranking score (human NTCP [1]; [4]) | B-score binding assay (human NTCP [2]; [5]) | B-score functional assay (human NTCP [1]; [9]) | Ranking score (human NTCP [1]; [10]) | B-score binding assay (human NTCP [2]; [11]) | further results
O=C(CCCN1CC=C(n2c(=O)[nH]c3ccccc32)CC1)c1ccc(F)cc1 [Droperidol] | 0.035 | 713.526 | 0.092 | – | – | – | –
CC[N+](C)(C)c1cccc(O)c1 [Edrophonium chloride] | – | – | – | – | – | – | Ranking score (human NTCP [1]; [6]): 420.888; B-score functional assay (human NTCP [1]; [7]): -1.061; B-score binding assay (human NTCP [2]; [8]): 0.083
CCOC(=O)[C@H](CCc1ccccc1)N[C@@H](C)C(=O)N1CCC[C@H]1C(=O)O [Enalapril maleate] | 0.08 | 705.002 | 0.03 | – | – | – | –
C[C@H](N[C@@H](CCc1ccccc1)C(=O)O)C(=O)N1CCC[C@H]1C(=O)O.O.O [Enalaprilat dihydrate] | 0.051 | 844.248 | 0.874 | – | – | – | –
CCn1cc(C(=O)O)c(=O)c2cc(F)c(N3CCNCC3)nc21 [Enoxacin] | – | – | – | 3.277 | 1072.03 | 0.523 | –
CCN1CCN(c2cc3c(cc2F)c(=O)c(C(=O)O)cn3C2CC2)CC1 [Enrofloxacin] | 0.028 | 706.109 | 0.083 | – | – | – | –
CCN(CC)C(=O)/C(C#N)=C/c1cc(O)c(O)c([N+](=O)[O-])c1 [Entacapone] | – | – | – | – | – | – | Ranking score (human NTCP [1]; [6]): 366.148; B-score functional assay (human NTCP [1]; [7]): -0.441; B-score binding assay (human NTCP [2]; [8]): -0.647
C[C@]12CC[C@H](O)C[C@@H]1CC[C@@H]1[C@@H]2CC[C@]2(C)C(=O)CC[C@@H]12 [Epiandrosterone] | – | – | – | – | – | – | B-score functional assay (human NTCP [1]): 2.177; Ranking score (human NTCP [1]): 1232.82; B-score binding assay (human NTCP [2]): 2.961
COc1cccc2c1C(=O)c1c(O)c3c(c(O)c1C2=O)C[C@@](O)(C(=O)CO)C[C@@H]3O[C@H]1C[C@H](N)[C@@H](O)[C@H](C)O1 [Epirubicin hydrochloride] | – | – | – | – | – | – | B-score functional assay (human NTCP [1]): 0.079; Ranking score (human NTCP [1]): 915.844; B-score binding assay (human NTCP [2]): 1.555
C[C@]12C[C@H]3S[C@H]3C[C@@H]1CC[C@@H]1[C@@H]2CC[C@]2(C)[C@@H](O)CC[C@@H]12 [Epitiostanol] | – | – | – | – | – | – | B-score functional assay (human NTCP [1]): 0.926; Ranking score (human NTCP [1]): 1032.88; B-score binding assay (human NTCP [2]): 0.911
CC[C@H]1OC(=O)[C@H](C)[C@@H](O[C@H]2C[C@@](C)(OC)[C@@H](O)[C@H](C)O2)[C@H](C)[C@@H](O[C@@H]2O[C@H](C)C[C@H](N(C)C)[C@H]2O)[C@](C)(O)C[C@@H](C)C(=O)[C@H](C)[C@@H](O)[C@]1(C)O [Erythromycin] | – | – | – | 3.026 | 1129.71 | 0.93 | –
COC(=O)CCc1ccc(OCC(O)CNC(C)C)cc1 (stereo not drawn) [Esmolol hydrochloride] | – | – | – | 0.736 | 1025.92 | 1.099 | –
CCCCC(=O)O[C@H]1CC[C@H]2[C@@H]3CCc4cc(O)ccc4[C@H]3CC[C@]12C [Estradiol Valerate] | -0.153 | 776.511 | 1.969 | – | – | – | –
C[C@]12CC[C@@H]3c4ccc(O)cc4CC[C@H]3[C@@H]1CCC2=O [Estrone] | – | – | – | 0.06 | 855.9 | 0.944 | –
O=C(Cn1ccnc1[N+](=O)[O-])NCCO [Etanidazole] | -0.015 | 680.728 | 0.108 | – | – | – | –
C=C(CC)C(=O)c1ccc(OCC(=O)O)c(Cl)c1Cl [Ethacrynic acid] | – | – | – | 0.935 | 1005.99 | 0.672 | –
O=S(=O)(O)c1cc(O)ccc1O [Ethamsylate] | – | – | – | 0.032 | 873.696 | 1.4 | –
CCOc1ccc(Cc2nccc3cc(OCC)c(OCC)cc23)cc1OCC [Ethaverine hydrochloride] | – | – | – | 0.024 | 885.91 | 1.651 | –
C#C[C@]1(O)CC[C@H]2[C@@H]3CCC4=CC(=O)CC[C@]4(C)[C@H]3CC[C@@]21C [Ethisterone] | -0.564 | 653.06 | 2.018 | – | – | – | –
CCN(CC)C(C)CN1c2ccccc2Sc2ccccc21 (stereo not drawn) [Ethopropazine hydrochloride] | 0.753 | 687.443 | -0.236 | – | – | – | –
CCC1(C)CC(=O)NC1=O (stereo not drawn) [Ethosuximide] | – | – | – | 1.817 | 1070.41 | 0.697 | –
CCN1C(=O)NC(c2ccccc2)C1=O (stereo not drawn) [Ethotoin] | – | – | – | 3.216 | 1133.18 | 0.936 | –
